From article PMC7615677 (Science translational medicine, 2023)
Where two headings read alike, the source gives them in different places.

Legend:
[1] = test system: HepG2 cells; experiment: MitoXpress oxygen consumption assay; type: cell-based
Description: Briefly, HepG2 cells were seeded in 96-well plates in 100 μL of complete media and incubated overnight in an incubator set to maintain approximately (37°C and 5% CO2). […] Oligomycin (5 μM), FCCP (1 μM), or antimycin A or antimycin A/Rotenone (1 μM) were added to additional wells as positive controls. Prewarmed (37°C) 100% mineral oil (100 μL) was immediately added to all wells. The assay plates were transferred to a Perkin Elmer Wallac VICTOR3 System reader for time-resolved fluorescence measurements. Fluorescence (excitation 340 nm/emission 642 nm) was measured every two minutes for approximately 1-2 hrs (or until signal plateau/saturation is reached).
The dual-read time-resolved (T1 = 30 μs and T2 = 70 μs) fluorescence intensity readings (R1 and R2) from the Perkin Elmer Wallac VICTOR3 system (Perkin Elmer) were converted to lifetime fluorescence values as per guidelines detailed in the Agilent MitoXpress Xtra Oxygen Consumption Assay Manual. Calculation of the slope translates to oxygen consumption rate (OCR). Oxygen consumption rate was multiplied by 60 to determine the slope/hour for each assay well.

[2] = test system: HEK293F-derived mitochondria; experiment: Calcium loading capacity (CLC) assessment; type: biochemical
Description: The CLC of frozen HEK293F-derived mitochondria was determined using a method based on that previously described for fresh rat liver mitochondria ([23]). Briefly, a buffer (130 mM Sucrose, 37.54 mM KCl, 2.5 mM KH2PO4, 5 mM HEPES) containing 0.5 mM Ca^2+ and supplemented with 15 mM succinate, 2.5 μM rotenone and 0.15 μg/ml cell impermeant Fluo 5N (Life Technologies), was added to each well of a 384 well microplate (control wells also contained 0.24 μl/well DMSO or 3 μM cyclosporine). Thawed mitochondria suspended at 0.6 mg/ml were added to all wells to initiate the assay, and the fluorescence measured every 5 minutes at 520 nm in a PHERAstar FS microplate reader (BMG LabTech, Aylesbury, UK), (25 reads over 2 hours). Area under the curve (AUC) values for the first 10 reads were exported and the concentration-response relationship was modelled using the following formula: y=((B-A)/(1+(10^X/10^C)^D)+A where B=max, A=min, C=IC50, D=slope. The fitted curves were then used to calculate a pXC50 value.

[3] = molecular target: hERG (Homo sapiens, UniProt Q12809); experiment: In vitro pharmacology panel (Eurofins); set-up: purchased Eurofins (Cerep/DiscoverX SafetyScreen44 in vitro pharmacology panel); conditions: human hERG potassium channel, [3H]dofetilide binding assay, probe [3H] Dofetilide, read-out: activity (% of DMSO control)
hERG, sequence (Q12809 whole entry): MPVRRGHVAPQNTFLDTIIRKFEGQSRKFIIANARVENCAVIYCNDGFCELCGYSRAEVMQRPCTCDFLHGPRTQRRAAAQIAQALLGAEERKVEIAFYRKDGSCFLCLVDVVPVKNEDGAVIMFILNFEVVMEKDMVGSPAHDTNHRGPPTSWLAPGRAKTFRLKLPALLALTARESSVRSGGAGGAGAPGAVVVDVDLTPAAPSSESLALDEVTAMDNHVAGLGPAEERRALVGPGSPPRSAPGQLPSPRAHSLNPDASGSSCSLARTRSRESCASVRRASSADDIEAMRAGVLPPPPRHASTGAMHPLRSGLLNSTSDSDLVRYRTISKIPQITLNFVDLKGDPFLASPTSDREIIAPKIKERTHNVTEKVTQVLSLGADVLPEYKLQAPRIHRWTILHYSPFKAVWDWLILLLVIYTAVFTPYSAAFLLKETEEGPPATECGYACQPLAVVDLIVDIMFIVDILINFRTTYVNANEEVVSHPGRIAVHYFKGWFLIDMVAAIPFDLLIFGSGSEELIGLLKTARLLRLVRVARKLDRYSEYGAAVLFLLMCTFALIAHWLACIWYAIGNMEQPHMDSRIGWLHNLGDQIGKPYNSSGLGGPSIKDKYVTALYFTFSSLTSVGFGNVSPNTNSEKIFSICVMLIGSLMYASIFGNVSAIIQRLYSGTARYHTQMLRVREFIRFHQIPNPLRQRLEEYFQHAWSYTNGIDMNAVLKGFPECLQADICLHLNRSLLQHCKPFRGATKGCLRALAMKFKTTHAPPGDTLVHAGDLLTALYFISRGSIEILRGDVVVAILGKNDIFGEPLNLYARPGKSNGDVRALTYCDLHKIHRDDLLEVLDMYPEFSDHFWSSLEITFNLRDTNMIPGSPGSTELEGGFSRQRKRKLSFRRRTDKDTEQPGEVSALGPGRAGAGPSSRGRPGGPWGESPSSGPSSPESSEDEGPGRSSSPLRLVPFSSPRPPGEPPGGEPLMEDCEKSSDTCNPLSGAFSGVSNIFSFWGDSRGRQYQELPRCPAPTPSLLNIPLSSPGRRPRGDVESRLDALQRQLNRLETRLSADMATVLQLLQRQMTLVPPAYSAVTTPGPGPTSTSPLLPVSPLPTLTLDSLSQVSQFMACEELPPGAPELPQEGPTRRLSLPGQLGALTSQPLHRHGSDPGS
From the text: Listed values represent the percent change relative to the DMSO control activity. When an IC50 had to be determined, eight different concentrations were included. All values are the mean of assay readout duplicates.

[4] = Compartmental PK modelling and repeat-dose simulation; set-up: species or system mice; conditions: for AUC: read-out: AUC24 ss
Description: To support pharmacokinetic/pharmacodynamic (PKPD) analysis, data in mice and hamsters were also analyzed by compartmental modeling using Phoenix WinNonlin (version 8.2; Certara, Princeton, NJ). For each dose level, an extravascular dosing, single compartment disposition model was fit to the combined Day 1/Day 5 repeat dose plasma data. The model was parameterized with a single volume term (V/F), and with first order absorption (K01) and elimination (K10) rate constants. Initial values for the parameter estimates were obtained by fitting of the model to the Day 1 data at the lowest dose level only, and the same initial values were used across the dose range. Experimental data used in model fitting were the mean concentration-time profiles and the average dose administered to each group. The weighting scheme (1/Y2 for mouse and 1/Y for hamster) was selected based on goodness of fit of the peak region of the experimental profiles. Parameter estimates obtained through fitting were used to simulate full repeat-dose plasma concentration-time profiles with both once-daily and twice-daily (dosing at […]) administration at each dose level and treatment duration used in the efficacy studies.

[5] = mice, 3.125 mg/kg bid, 10 days, simulated
[6] = mice, 12.5 mg/kg bid, 5 days, simulated
[7] = mice, 12.5 mg/kg qd, 5 days, simulated
[8] = mice, 25 mg/kg bid, 5 days, simulated
[9] = mice, 25 mg/kg qd, 5 days, simulated
[10] = mouse, plasma, po, 3.125 mg/kg, mice, 3.125 mg/kg bid, 10 days, simulated
[11] = mouse, plasma, po, 12.5 mg/kg, mice, 12.5 mg/kg bid, 5 days, simulated
[12] = mouse, plasma, po, 12.5 mg/kg, mice, 12.5 mg/kg qd, 5 days, simulated
[13] = mouse, plasma, po, 25 mg/kg, mice, 25 mg/kg qd, 5 days, simulated
[14] = mouse, plasma, po, Mice, 3.6 mg/kg, fitted
[15] = mouse, plasma, po, Mice, 7.1 mg/kg, fitted
[16] = mouse, plasma, po, Mice, 12.7 mg/kg, fitted
[17] = mouse, plasma, po, Mice, 25 mg/kg, fitted

Compound: Cc1[nH]c2nc(N)nc(C)c2c1-c1ccc(C#N)c2c1OCO2 [DNDI-6174]
- concentrations at which oxygen consumption was reduced [1]: ≥ 66 µM
- margin of MitoExpress no-effect concentration over free concentration at predicted human therapeutic plasma Cmax [1]: approximately 57 fold
- maximum reduction of oxygen consumption ([1]; 200 μM (highest tested)): 28%
- Mean pXC50, calcium loading capacity ([2]; HEK mitochondria): 5
- XC50, reduction in calcium loading capacity ([2]; isolated HEK mitochondria): 10 µM
- activity at 10 µM [3]: 94.2%
- K01 ([4]; Mice, 3.6 mg/kg, fitted): 1.04 h⁻¹
- K10 ([4]; Mice, 3.6 mg/kg, fitted): 0.270 h⁻¹
- V/F ([4]; Mice, 3.6 mg/kg, fitted): 2.76 L/kg
- K01 ([4]; Mice, 7.1 mg/kg, fitted): 0.833 h⁻¹
- K10 ([4]; Mice, 7.1 mg/kg, fitted): 0.246 h⁻¹
- V/F ([4]; Mice, 7.1 mg/kg, fitted): 1.95 L/kg
- K01 ([4]; Mice, 12.7 mg/kg, fitted): 0.634 h⁻¹
- K10 ([4]; Mice, 12.7 mg/kg, fitted): 0.213 h⁻¹
- V/F ([4]; Mice, 12.7 mg/kg, fitted): 1.43 L/kg
- K01 ([4]; Mice, 25 mg/kg, fitted): 3.00 h⁻¹
- K10 ([4]; Mice, 25 mg/kg, fitted): 0.158 h⁻¹
- V/F ([4]; Mice, 25 mg/kg, fitted): 2.40 L/kg
- AUC24 ss (unbound) [4, 5]: 1010 ng·h/mL
- Cav ss [4, 5]: 351 ng/mL
- Cav ss (unbound) [4, 5]: 42 ng/mL
- Cmax (unbound) [4, 5]: 98 ng/mL
- Cmin [4, 5]: 23 ng/mL
- Cmin (unbound) [4, 5]: 3 ng/mL
- Cum AUC (unbound) [4, 5]: 10100 ng·h/mL
- AUC24 ss [4, 6]: 82000 ng·h/mL
- AUC24 ss (unbound) [4, 6]: 9840 ng·h/mL
- Cav ss [4, 6]: 3420 ng/mL
- Cav ss (unbound) [4, 6]: 410 ng/mL
- Cmax (unbound) [4, 6]: 780 ng/mL
- Cmin [4, 6]: 520 ng/mL
- Cmin (unbound) [4, 6]: 62 ng/mL
- Cum AUC [4, 6]: 410000 ng·h/mL
- Cum AUC (unbound) [4, 6]: 49200 ng·h/mL
- AUC24 ss (unbound) [4, 7]: 4920 ng·h/mL
- Cav ss [4, 7]: 1710 ng/mL
- Cav ss (unbound) [4, 7]: 205 ng/mL
- Cmax (unbound) [4, 7]: 608 ng/mL
- Cmin [4, 7]: 80 ng/mL
- Cmin (unbound) [4, 7]: 10 ng/mL
- Cum AUC (unbound) [4, 7]: 24600 ng·h/mL
- AUC24 ss (unbound) [4, 8]: 15800 ng·h/mL
- Cav ss [4, 8]: 5470 ng/mL
- Cav ss (unbound) [4, 8]: 657 ng/mL
- Cmax [4, 8]: 11700 ng/mL
- Cmax (unbound) [4, 8]: 1410 ng/mL
- Cmin [4, 8]: 1140 ng/mL
- Cmin (unbound) [4, 8]: 137 ng/mL
- Cum AUC [4, 8]: 657000 ng·h/mL
- Cum AUC (unbound) [4, 8]: 78800 ng·h/mL
- AUC24 ss (unbound) [4, 9]: 7880 ng·h/mL
- Cav ss [4, 9]: 2740 ng/mL
- Cav ss (unbound) [4, 9]: 328 ng/mL
- Cmax (unbound) [4, 9]: 1080 ng/mL
- Cmin [4, 9]: 251 ng/mL
- Cmin (unbound) [4, 9]: 30 ng/mL
- Cum AUC (unbound) [4, 9]: 39400 ng·h/mL
- Cmax at 10 days [4, 10]: 820 ng/mL
- AUC [4, 10]: 8410 ng·h/mL
- AUC at 10 days ([4]; mouse, plasma, po, 3.125 mg/kg, mice, 3.125 mg/kg bid, 10 days, simulated, read-out: Cum AUC): 84100 ng·h/mL
- Cmax ([4]; mouse, plasma, po, 3.6 mg/kg, Mice, 3.6 mg/kg, fitted, read-out: Cmax): 813 ng/mL
- Cmax ([4]; mouse, plasma, po, 7.1 mg/kg, Mice, 7.1 mg/kg, fitted, read-out: Cmax): 2190 ng/mL
- Cmax at 5 days [4, 11]: 6500 ng/mL
- AUC [4, 11]: 82000 ng·h/mL
- AUC at 5 days ([4]; mouse, plasma, po, 12.5 mg/kg, mice, 12.5 mg/kg bid, 5 days, simulated, read-out: Cum AUC): 410000 ng·h/mL
- Cmax at 5 days [4, 12]: 5070 ng/mL
- AUC [4, 12]: 41000 ng·h/mL
- AUC at 5 days ([4]; mouse, plasma, po, 12.5 mg/kg, mice, 12.5 mg/kg qd, 5 days, simulated, read-out: Cum AUC): 205000 ng·h/mL
- Cmax ([4]; mouse, plasma, po, 12.7 mg/kg, Mice, 12.7 mg/kg, fitted, read-out: Cmax): 5100 ng/mL
- Cmax ([4]; mouse, plasma, po, 25 mg/kg, Mice, 25 mg/kg, fitted, read-out: Cmax): 8830 ng/mL
- Cmax at 5 days ([4]; mouse, plasma, po, 25 mg/kg, mice, 25 mg/kg bid, 5 days, simulated): 11700 ng/mL
- AUC at 5 days ([4]; mouse, plasma, po, 25 mg/kg, mice, 25 mg/kg bid, 5 days, simulated, read-out: Cum AUC): 657000 ng·h/mL
- Cmax at 5 days [4, 13]: 9030 ng/mL
- AUC [4, 13]: 65700 ng·h/mL
- AUC at 5 days ([4]; mouse, plasma, po, 25 mg/kg, mice, 25 mg/kg qd, 5 days, simulated, read-out: Cum AUC): 328000 ng·h/mL
- AUC(0-inf) [4, 14]: 4840 ng·h/mL
- CL/F [4, 14]: 12.4 mL/min/kg
- AUC(0-inf) [4, 15]: 14800 ng·h/mL
- CL/F [4, 15]: 7.98 mL/min/kg
- AUC(0-inf) [4, 16]: 41700 ng·h/mL
- CL/F [4, 16]: 5.08 mL/min/kg
- AUC(0-inf) [4, 17]: 65700 ng·h/mL
- CL/F [4, 17]: 6.35 mL/min/kg
